Where no end group is shown, it is not given here. [ ]: non-standard residue; d: D form. pGlu = O=C1CC[C@@H](C(=O)O)N1
What was measured:
IMGE-5 cells [1] = assay: IMGE-5 cell proliferation, [3H]-thymidine incorporation; type: cell-based, mice; conditions: for S (%), maximum % stimulation: IMGE cells, thymidine uptake, best fit at saturating concentration; for Effect of DFO on proliferation induced by the peptide: peptide 100 nM, plus or minus 1 μM DFO, [3H]-thymidine incorporation; for Inhibition of Ggly-stimulated IMGE-5 cell proliferation by iron chelator: [3H]-thymidine incorporation (FIG. 10)
Protocol: In some cases cell proliferation was also measured by [^3H]-thymidine incorporation as described previously (Oiry et al., 2000). Briefly, IMGE-5 cells (10^5/well) were seeded in 24-well plates in medium containing 10% FBS and 1 unit/ml γ-interferon. On the next day cells were serum starved and shifted to 39° C. for 24 hr. Cells were then incubated with or without various compounds at 39° C. for 17 h in medium supplemented with 0.2% bovine serum albumin only. Cells were incubated with 0.5 μCi of [^3H] thymidine in the same medium at 39° C. for 4 h, washed twice with PBS (2.7 mM KCl, 142 mM NaCl, 1.5 mM KH2PO4, 10 mM Na2HPO4, pH 6.95) containing 0.2% bovine serum albumin and incubated at 4° C. for 30 min with 5% trichloroacetic acid. Finally cells were washed with 95% ethanol to remove unincorporated [^3H] thymidine, and lysed with 1 M NaOH. Lysates were transferred to counting vials and neutralized with 1M HCl. The radioactivity of each lysate was counted in a β-counter after the addition of 10 ml of Pico-fluor 40 solution (Packard, Meriden, Conn.).
In some experiments IMGE-5 cells were seeded in a 96-well plate at a density of 3-5×10^3 cells/well in.DMEM containing 10% FBS, and cultured at 33° C.. On the following day, the cells were serum-starved at 33° C. for 24 h. […] The cells were cultured at 39° C. for 24 h, and then harvested using a NUNC cell harvester. The amount of ^3H-thymidine incorporated through DNA synthesis was detected with a β-counter (Packard, Meriden, Conn.). […]

IMGE-5 cells [2] = assay: IMGE-5 cell proliferation, MTT assay; type: cell-based, mice; conditions: MTT assay; peptides shown at 1 nM (FIGS. 7A, 8A)
Protocol: (§1) The IMGE-5 cell line was established from the gastric mucosa of mice transgenic for a temperature-sensitive mutant of the SV40 large T antigen (Hollande et al, 2001). IMGE-5 cells were generally grown at 33° C. in DMEM containing 1 unit/ml γ-interferon, 10% FBS, 100 U/ml penicillin, and 100 μg/ml streptomycin (permissive conditions). For all experiments, cells were transferred to 39° C. in the same medium without […] (non-permissive conditions), where they display differentiated characteristics such as expression of functional adherens and tight junctions. All experiments have been performed on cells between passages 20 and 35.
A colorimetric assay was used to measure cell proliferation. Briefly, IMGE-5 cells were seeded in a 96-well plate at a density of 10^4 cells/well in DMEM containing 10% FBS and antibiotics. The following day, cells were synchronized in Go by incubation for 24 h in the same medium lacking FBS. The medium was replaced the next day with fresh medium containing 1% FBS and antibiotics and the peptides under investigation, and incubation was continued for 72 h. 15 μl of 5 mg/ml 3-(4,5-dimethylthiazol-2-yl)-2-5-diphenyltetrazolium bromide (MTT, Sigma, St Louis Mo.) was added per well, and the plate was incubated at 37° C. for 4 h before the medium was discarded. 200 μl 40 mM HCl in isopropanol was added to lyse the cells, and the absorbance at 570 nm was read on a BioRad Model 550 Microplate reader (BioRad, Hercules, Calif.).

IMGE-5 cells [3] = assay: Wound healing / cell migration assay; type: cell-based, mice; conditions: wound healing assay; fragments and mutants shown at 1 nM (FIGS. 7B, 8B)
Protocol: as §1
In order to assess the effects of different stimuli on cell migration, wound healing experiments were performed as detailed elsewhere (Hollande et al, 1997). In brief, IMGE-5 cells were grown in 12-well plates in DMEM at 33° C. until they reached 80% confluence, then shifted to 39° C. and starved of serum for 24 h. The confluent monolayer was wounded using a 20 μl-pipette tip, and cells were then washed 3 times with phosphate-buffered saline (PBS: 2.7 mM KCl, 1.5 MM KH2PO4, 142 mM NaCl, and 10 mM Na2HPO4, pH 6.95) and treated with or without different compounds in DMEM with antibiotics. Morphology and migration of cells were observed and photographed immediately, and after treatment for 17 and 24 h. Wound width was measured at six different positions on the 24 h photographs, and averages calculated.

[4] = Quenching of peptide tryptophan fluorescence by ferric ions (stoichiometry, apparent Kd); type: binding; conditions: 10 mM sodium acetate pH 4.0, 100 mM NaCl, 0.005% Tween 20; mean ± S.E.; read-out: Kd (μM), apparent dissociation constant for ferric ions
Protocol: The tryptophan fluorescence of peptide solutions was measured in 3 mL quartz cuvettes thermostated at […], with a Spex Fluorolog-2 spectrofluorimeter (Spex Industries, Edison, N.J.), with the excitation and emission wavelengths set at 290 and 345 nm, respectively. The quenching of tryptophan fluorescence induced by the binding of metal ions was used to calculate the fraction of binding sites occupied, fa: fa=(yf−y)/(yf−yb) where y is the fluorescence signal at a given concentration of metal ions and yb and yf are the signals when the binding sites are fully occupied and unoccupied, respectively (Winzor et al, 1995). The stoichiometry, p, and apparent dissociation constant, Kd, were then obtained, using the program Sigmastat (Jandel Scientific, San Rafael, Calif.), from the intercept and slope of a linear regression of the data transformed as described by Winzor and Sawyer (1995) in terms of the equation Cs/fa=pCa+Kd/(1−fa) where Cs is the total concentration of metal ions, and Ca is the total concentration of glycine-extended gastrin17. For the bismuth binding studies, the data was fitted by non-linear regression with the program Sigmaplot (Jandel Scientific, San Rafael, Calif.) to the equations for models with one binding site or two binding sites with identical affinities: fa=x/(Kd1+x) or to the model with two binding sites with different affinities: fa=(Kd1·x+Kd2·x+2x^2)/2(Kd1·Kd2+Kd1·x+Kd2·x+x^2) where x is the concentration of free metal ions, Kd1 is the first site dissociation constant and Kd2 is the second site dissociation constant. For the one-site model the value of x at any given total concentration of metal ions was obtained by exact solution of the appropriate quadratic (Malby et al, 2001). For the two-site models the value of x was obtained by an iterative Newton-Raphson procedure (Linse et al, 1991). Absorption Spectroscopy
The tryptophan fluorescence of progastrin6-80, glycine-extended gastrin17 and related peptides was measured in the presence of increasing concentrations of ferric ions in 10 mM sodium acetate, pH 4.0, 100 mM NaCl, 0.005% Tween 20. […] Values from the indicated number of independent experiments were combined to obtain the mean values (±S.E.) presented above. No binding of ferric ions to Ggly1-4 or Ggly12-18 was observed.
The tryptophan fluorescence of amidated gastrin17 and related peptides was measured in the presence of increasing concentrations of ferric ions at pH 4.0 (8). Values of the stoichiometry and the apparent dissociation constant (Kd) were obtained from linear transformations of the data presented in FIG. 20A by least squares fitting. Values from the indicated number of independent experiments were combined to obtain the mean values (±S.E.) presented above.

Molecule	S (%), maximum % stimulation (IMGE-5 cells [1]) [%]	Effect of DFO on proliferation induced by the peptide (IMGE-5 cells [1])	Stimulation of IMGE-5 cell proliferation (IMGE-5 cells [2])	Stimulation of IMGE-5 cell migration (IMGE-5 cells [3])	also measured
EEEEE [Peptide E5]	22.5	no significant reduction	–	–	–
LEEEEE [LE5]	29.9	no significant reduction	–	–	–
Oc1c(I)cc(Cl)c2cccnc12 [clioquinol]	–	–	–	–	Inhibition of Ggly-stimulated IMGE-5 cell proliferation by iron chelator (IMGE-5 cells [1]): inhibited Ggly-stimulated IMGE-5 cell proliferation in a dose-dependent manner
EEEEEA [Peptide E5A]	29.1	no significant reduction	–	–	–
LEEEEEA [LE5A]	34.7	lower in the presence of DFO, although the reduction did not reach significance	–	–	–
Ggly12-18: C-terminal heptapeptide of Ggly, SEQ ID NO:8 (YGWMDFG; listed as Homo sapiens)	–	–	neither of these fragments stimulated proliferation	Nor did they stimulate migration	–
EEEEEAY [Peptide E5AY]	36.1	significantly blocked by DFO	–	–	–
GglyE6A: Ggly mutant, Glu6 replaced by Ala, SEQ ID NO:10 ([pGlu]GPWLAEEEEAYGWMDFG; ends and bridges not checked)	–	–	to the same extent as Ggly	to the same extent as Ggly	Kd [4]: 0.23 ± 0.02 µM
Ggly1-4: fragment of Ggly, residues 1-4, SEQ ID NO:6 ([pGlu]GPW; listed as Homo sapiens)	–	–	neither of these fragments stimulated proliferation	Nor did they stimulate migration	–
COc1cccc2c1C(=O)c1c(O)c3c(c(O)c1C2=O)C[C@@](O)(C(=O)CO)C[C@@H]3O[C@H]1C[C@H](N)[C@H](O)[C@H](C)O1 [doxorubicin]	–	–	–	–	Inhibition of Ggly-stimulated IMGE-5 cell proliferation by iron chelator (IMGE-5 cells [1]): inhibited Ggly-stimulated IMGE-5 cell proliferation in a dose-dependent manner
